Experimental findings from patent USRE31731E, “Herbicidal 4-trifluoromethyl-4-nitrodiphenyl ethers” (priority 1978, dated 1984) are described below.

Common to all, as to format: in vivo
The subject of data set [1] is Monocots. Nature of the data set: Herbicidal activity, postemergence, monocot weeds (Table II). The conditions noted are these: post-emergence, 336 h, about 2 weeks, read-out: % control (percent of plants killed); for pest or weed control at 4483.4 g/ha: 4 lb./A.; for pest or weed control at 2241.7 g/ha: 2 lb./A. Summed up: (§1)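 Value is mean percent kill, judged roughly 2 weeks post-treatment. Acetone/water spray at 50 gal/A, given either right after sowing in soil flats (preemergence) or once seedlings were 2 weeks old (postemergence); rates in lb/A.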

Another data set has as its system peanuts. Nature of the data set: Crop tolerance, peanuts. Conditions: 50% or less kill of crop at rates giving more than 50% kill of weeds. The method, then: (§2) The following test procedure is employed. Seeds of selected crops and weeds are planted in soil in flats. For preemergence tests, the flats are treated with the test compound immediately after the planting. For postemergence tests, the seeds are allowed to germinate, and after 2 weeks the flats are treated with the test compound. The compound to be evaluated is dissolved in acetone, diluted with water, and sprayed over the flats using a carrier volume equivalent to 50 gallons per acre at the rate of application (pounds per acre, lb/A.) specified in the tables. About 2 weeks after the application of the test compound, the state of growth of the plants is observed and the phytotoxic effect of the compound is evaluated. Table II gives the average percent control achieved by the test compounds in terms of the percent of the plants which are killed by the compounds.
(§3) Following the general test procedure of Example 73, diphenyl ethers are evaluated for significant tolerance (as shown by 50% or less kill of the test crop at levels of application which give more than 50% kill of many or all of the weeds of Example 73) towards some or all of the following common agronomic crops (not all compounds tested against all crops): alfalfa, snapbeans, corn, cotton, cucumbers, peanuts, rape, rice, safflower, soybeans, tomatoes, and wheat.

A further data set relates to cotton. Nature of the data set: Crop tolerance, cotton. The conditions noted are these: 50% or less kill of crop at rates giving more than 50% kill of weeds. As to the method: as §2, §3
The test system of the next data set is soybeans. Nature of the data set: Crop tolerance, soybeans. Conditions: 50% or less kill of crop at rates giving more than 50% kill of weeds. The method, then: as §2, §3
In data set [2] the test system is Dicots. Nature of the data set: Herbicidal activity, preemergence, dicot weeds (Table II). The conditions noted are these: pre-emergence, 336 h, about 2 weeks, read-out: % control (percent of plants killed); for pest or weed control at 4483.4 g/ha: 4 lb./A.; for pest or weed control at 2241.7 g/ha: 2 lb./A. Summed up: (§4)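 Plants were scored roughly 2 weeks post-treatment for percent kill (average percent control). Treatment was an acetone–water spray in 50 gal/acre carrier at the listed pounds per acre, applied either immediately after sowing or to 2-week-old seedlings.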

The test system of the next data set is rice. Nature of the data set: Crop tolerance, rice. The conditions noted are these: 50% or less kill of crop at rates giving more than 50% kill of weeds. As to the method:
as §2, §3

Another data set has as its system safflower. Nature of the data set: Crop tolerance, safflower. The conditions noted are these: preemergence; 50% or less kill of crop at rates giving more than 50% kill of weeds. As to the method: as §2, §3
Data set [3] deals with Monocots. Nature of the data set: Herbicidal activity, preemergence, monocot weeds (Table II). Conditions: pre-emergence, 336 h, about 2 weeks, read-out: % control (percent of plants killed); for pest or weed control at 4483.4 g/ha: 4 lb./A.; for pest or weed control at 2241.7 g/ha: 2 lb./A. Summed up:
as §1

For data set [4], the system named is Dicots. Nature of the data set: Herbicidal activity, postemergence, dicot weeds (Table II). The conditions noted are these: post-emergence, 336 h, about 2 weeks, read-out: % control (percent of plants killed); for pest or weed control at 4483.4 g/ha: 4 lb./A.; for pest or weed control at 2241.7 g/ha: 2 lb./A. Summed up: as §4
The test system of another data set is snapbeans. Nature of the data set: Crop tolerance, snapbeans. The conditions noted are these: preemergence; 50% or less kill of crop at rates giving more than 50% kill of weeds. The method, then: as §2, §3
A further data set concerns corn. Nature of the data set: Crop tolerance, corn. The conditions noted are these: 50% or less kill of crop at rates giving more than 50% kill of weeds. The method, then:
as §2, §3

Another data set concerns wheat. Nature of the data set: Crop tolerance, wheat. Conditions: 50% or less kill of crop at rates giving more than 50% kill of weeds. As to the method:
as §2, §3

The mark [5] stands for this setting: postemergence or on transplanted rice.

Structures are written as SMILES.

For `CCOc1cc(Oc2ccc(C(F)(F)F)cc2Cl)ccc1[N+](=O)[O-]` [Example 3, 2-Chloro-α,α,α-trifluoro-p-tolyl-3-ethoxy-4-nitrophenyl ether], the pest or weed control at 4483.4 g/ha amounted to 99% in the data set with Monocots [1], 99% in the data set on Dicots [2], 89% in the data set with Monocots [3] and 100% in the data set with Dicots [4]. Besides, the pest or weed control at 11208.5 g/ha with Monocots [1] (10 lb./A.) is 100%; with Dicots [2] (10 lb./A.), 100%; in the data set with Monocots [3] (10 lb./A.), 99%; in the data set on Dicots [4] (10 lb./A.) it was 100%. Besides, the Tolerance to peanuts entry with peanuts (preemergence) was “Tolerance”. Moreover, the Tolerance to cotton result with cotton (postemergence or layby) and in the data set with cotton (preemergence) was “Tolerance” each time. The Tolerance to soybeans result in the data set with soybeans (postemergence or layby) and in the data set on soybeans (preemergence) was “Tolerance” throughout. Moreover, the Tolerance to rice entry in the data set on rice (setting [5]) is “Tolerance”. Besides, in the data set on safflower, the Tolerance to safflower entry is recorded as “Tolerance”.
Consider `CC(C)Oc1cc(Oc2ccc(C(F)(F)F)cc2Cl)ccc1[N+](=O)[O-]` [Example 4], for which the pest or weed control at 4483.4 g/ha in the data set on Monocots [1] was 80%; with Dicots [2], 100%; in the data set with Monocots [3], 98%; with Dicots [4], 100%. In addition, the Tolerance to peanuts result in the data set with peanuts (postemergence) is recorded as “Tolerance”. For the same molecule, in the data set with snapbeans, the Tolerance to snapbeans result is “Tolerance”. Besides, the Tolerance to cotton result in the data set with cotton (preemergence) was “Tolerance”. The Tolerance to soybeans entry in the data set with soybeans (preemergence) is on record as “Tolerance”. Also, the Tolerance to corn result in the data set on corn (postemergence) and with corn (preemergence) was “Tolerance” each time. Further, the Tolerance to rice result in the data set with rice (preemergence) was “Tolerance”. Besides, the Tolerance to wheat result in the data set with wheat (postemergence) and in the data set on wheat (preemergence) was “Tolerance” in each case.
For `CCOC(=O)C(C)Oc1cc(Oc2ccc(C(F)(F)F)cc2Cl)ccc1[N+](=O)[O-]` (stereo not drawn) [Example 26, 2-Chloro-α,α,α-trifluoro-p-tolyl-3-(1-carbethoxyethoxy)-4-nitrophenyl ether], the pest or weed control at 2241.7 g/ha worked out at 93% in the data set on Monocots [1], 99% with Dicots [2], 75% in the data set on Monocots [3] and 100% with Dicots [4]. The pest or weed control at 4483.4 g/ha with Monocots [1] stood at 99%; in the data set on Dicots [2] it was 100%; in the data set with Monocots [3] it was 98%; in the data set on Dicots [4] it was 100%. Besides, the Tolerance to snapbeans entry in the data set with snapbeans is recorded as “Tolerance”. For the same molecule, in the data set with soybeans (preemergence), the Tolerance to soybeans entry is “Tolerance”. For the same molecule, the Tolerance to corn result in the data set with corn (postemergence) is “Tolerance”. For the same molecule, the Tolerance to wheat entry with wheat (preemergence) is given as “Tolerance”.
On to `C#CC(C)Oc1cc(Oc2ccc(C(F)(F)F)cc2Cl)ccc1[N+](=O)[O-]` (stereo not shown) [Example 30], for which the pest or weed control at 2241.7 g/ha in the data set on Monocots [1] amounted to 91%; in the data set on Dicots [2], 94%; with Monocots [3], 78%; in the data set with Dicots [4], 100%. In addition, the pest or weed control at 4483.4 g/ha in the data set with Monocots [1] was determined as 75%; with Dicots [2] it was 99%; with Monocots [3], 81%; in the data set with Dicots [4], 100%. The Tolerance to peanuts result in the data set with peanuts (preemergence) was “Tolerance”. The Tolerance to cotton entry with cotton (preemergence) is reported as “Tolerance”. Besides, the Tolerance to soybeans entry in the data set with soybeans (preemergence) is reported as “Tolerance”. The Tolerance to rice result with rice (setting [5]) and with rice (preemergence) was “Tolerance” each time. Further, in the data set with wheat (postemergence), the Tolerance to wheat entry is “Tolerance”.
As for `CCN(CCO)c1cc(Oc2ccc(C(F)(F)F)cc2Cl)ccc1[N+](=O)[O-]` [Example 54], the pest or weed control at 2241.7 g/ha in the data set with Monocots [1] stood at 71%; with Dicots [2], 98%; in the data set with Monocots [3], 98%; in the data set on Dicots [4], 100%. For the same molecule, the pest or weed control at 4483.4 g/ha worked out at 79% in the data set with Monocots [1], 75% in the data set with Dicots [2], 83% in the data set with Monocots [3] and 100% in the data set on Dicots [4]. For the same molecule, in the data set with peanuts (postemergence), the Tolerance to peanuts result is “Tolerance”. In addition, in the data set with soybeans (preemergence), the Tolerance to soybeans entry is “Tolerance”. Besides, the Tolerance to corn entry with corn (postemergence) and in the data set on corn (preemergence) was “Tolerance” each time. Moreover, the Tolerance to rice entry in the data set with rice (setting [5]) and with rice (preemergence) was “Tolerance” each time. Moreover, the Tolerance to wheat result in the data set with wheat (postemergence) and in the data set on wheat (preemergence) was “Tolerance” in each case.
